Measurements taken from patent US20220218834A1, “APOHEMOGLOBIN-HAPTOGLOBIN COMPLEXES AND METHODS OF USING THEREOF” (OHIO STATE INNOVATION FOUNDATION, priority 2019, published 2022).

What was measured:
[1] = tested on: normal cells (NOR-10, MCF 10A); experiment: Cell viability (MTT) without laser irradiation, normal cells; format: cell-based, murine and human; conditions: without laser irradiation (dark)
Protocol: (§1) Cell Culture. Cancerous (4T1 [murine] and MDA-MB-231 [human]) and noncancerous (NOR-10 [murine] and MCF-10A [human]) cell lines were purchased from American Type Culture Collection (ATCC, Manassas, Va.). All cells were cultured in DMEM, and supplemented with 10% (v:v) fetal bovine serum and 1% (v:v) antibiotic solution (100 IU/mL penicillin and […]). All cells were maintained at 37° C. in 5% CO2 and in a humidified atmosphere.
(§2) PDT. For PDT, 4T1, MDA-MB-231, NOR-10, and MCF-10A cells were cultured for 24 hours at a density of 5×10^3 on coverslips. Next, cells were exposed to Al-PC, apoHb-Al-PC-Hp, and apoHb-Hp in culture medium at different concentrations. Later, the cells were irradiated with a laser (λ=670 nm) at energy densities between 0.0 J/cm2 and 4 J/cm2 for 15 minutes in the dark.
(§3) Cell Viability. Cell viability was assessed using the MTT assay, which is converted by the mitochondria of viable cells to an insoluble purple precipitate. Briefly, after receiving their treatment, cells were washed with PBS twice and then incubated with 0.5 mg/mL of MTT in culture medium for 2 hours. Then, the MTT solution was washed away, and the purple precipitate was extracted from the cells with 150 μL of dimethyl sulfoxide (DMSO). The absorption was then measured at λ=595 nm using a spectrophotometer (Spectramax; Molecular Devices).

[2] = tested on: cancerous cells (4T1, MDA-MB-231); format: cell-based; conditions: without laser irradiation (dark)
Protocol: as §1, §2, §3

[3] = unit not given; cited from earlier work
[4] = Stability of apoHb-Al-PC on dialysis against PBS; format: physicochemical
Protocol: Stability of ApoHb-Al-PC. […] The sample was then dialyzed against PBS using 6-8 kDa cellulose dialysis membranes to remove any residual EtOH. Dialysis was performed over three days with daily exchange of the PBS buffer. The UV-visible absorbance spectra of samples were measured before and after dialysis.

[5] = tested on: Hp; experiment: HPLC-SEC of apoHb-Mn-IX binding to Hp; parameters: species or system human; conditions: excess apoHb, detection of Mn-IX
Protocol: Diagnostic/therapeutic solutions tested here consisted of either Mn-porphyrin IX chloride (Mn-IX) or aluminum phthalocyanine (Al-PC) chloride. The Mn-IX solution was made by dissolving 2.5 mg of Mn-IX in 0.5 mL of 0.1 M NaOH. For Al-PC, 1 mg of Al-PC was dissolved in 1 mL of pure EtOH, then 50 μL of the saturated solution was diluted into 1 mL of pure EtOH (the second dilution ensured that the Al-PC is monomeric in solution). […] From the stock diagnostic/therapeutic solutions, either 2 μl of the stock Mn-IX or 100 μl of the Al-PC solutions was added to the protein samples. The resultant mixtures had their absorbance spectras measured via UV-visible spectroscopy and were separated via size exclusion chromatography (SEC) using an Acclaim SEC-1000 (4.6×300 mm) column (Thermo Fisher Scientific, Waltham, Mass.) attached to a Dionex UltiMate 3000 system (Thermo Fisher Scientific, Waltham, Mass.). The mobile phase consisted of 50 mM potassium phosphate, pH 7.4.
Target sequence in this assay (P00738 19-160 limits assumed): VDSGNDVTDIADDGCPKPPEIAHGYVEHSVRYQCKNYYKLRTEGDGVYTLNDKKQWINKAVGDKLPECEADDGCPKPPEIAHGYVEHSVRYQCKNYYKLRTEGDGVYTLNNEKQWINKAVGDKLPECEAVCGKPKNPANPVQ
Target sequence in this assay (P00738 162-406 limits assumed): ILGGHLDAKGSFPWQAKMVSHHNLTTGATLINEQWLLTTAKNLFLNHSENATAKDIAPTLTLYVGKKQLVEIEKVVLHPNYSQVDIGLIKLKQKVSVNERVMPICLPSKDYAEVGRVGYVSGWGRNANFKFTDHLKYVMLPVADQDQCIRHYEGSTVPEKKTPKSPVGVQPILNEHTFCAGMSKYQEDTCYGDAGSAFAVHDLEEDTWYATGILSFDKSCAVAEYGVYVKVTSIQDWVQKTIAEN
Target sequence in this assay (P69905 2-142 partner limits assumed): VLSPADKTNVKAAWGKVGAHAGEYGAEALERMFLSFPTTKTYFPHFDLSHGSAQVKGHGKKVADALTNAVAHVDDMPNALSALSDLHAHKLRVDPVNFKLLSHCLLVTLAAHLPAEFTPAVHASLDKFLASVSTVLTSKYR
Target sequence in this assay (P68871 2-147 partner limits assumed): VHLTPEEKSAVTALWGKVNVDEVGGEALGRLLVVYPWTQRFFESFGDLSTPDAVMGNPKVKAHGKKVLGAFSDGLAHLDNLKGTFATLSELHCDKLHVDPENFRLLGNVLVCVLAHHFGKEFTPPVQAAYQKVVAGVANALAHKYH

[6] = tested on: Hp; conditions: cited from earlier work
Target sequence in this assay (P00738 162-406 limits assumed): as the sequence (P00738 162-406 limits assumed) above

[7] = tested on: Hp; experiment: Kinetics of Hp binding to Hb and PolyHb, stopped-flow fluorescence; parameters: species or system human; conditions: 20° C., PBS 0.1 M pH 7.4
Protocol: The Hp used for this study was purified from human Cohn Fraction IV derived from pooled human plasma. The resulting Hp contained both Hp2-1 and Hp2-2 phenotypes. The total amount of protein in solution was estimated with a Bradford assay. The Hb binding capacity of Hp was assessed by monitoring Hb binding to Hp at 413 nm with HPLC-SEC and was used to quantify the concentration of Hp. The reaction of Hp with either unmodified human Hb or PolyHb synthesized in this study was monitored using an SX-20 stopped stopped-flow spectrophotometer using previously described methods (Applied Photophysics, Leatherhead, UK). Excess Hp (2:1, Hp:PolyhHb on a Hb tetramer binding basis) was allowed to react with PolyHb to form the resulting Hp-PolyHb complex. The resulting changes in size distribution after Hp binding was estimated with HPLC-SEC using previously described methods. All measurements were taken from the same sample used in the animal study.
Target sequence in this assay (P00738 162-406 limits assumed): as above

[8] = Rheology of PolyHb solutions (cone and plate rheometer); format: physicochemical
Excerpt: (§4) The Hb used in this exampler was purified from human RBCs via tangential flow filtration (TFF), as described previously. Hb was polymerized with glutaraldehyde under complete deoxygenation in the tense (T) quaternary state at a 25:1 molar ratio of glutaraldehyde to Hb. After polymerization, PolyHb was clarified, purified, and buffer exchanged into a modified Ringer's lactate solution using TFF. Modified polyester sulfone hollow fiber filters with a molecular weight cutoff (MWCO) of 100 kDa were used to remove unpolymerized Hb from solution. The PolyHb solution was concentrated to 12 g/dL. […] The size distribution of PolyHb, by particle volume, was measured using dynamic light scattering (DLS) (Brookhaven Instrument Inc. BS-200M, Holtsville, N.Y.). The rheology of PolyHb solutions was measured using a DV3T-CP cone and plate rheometer (Brookfield AMETEK, Middleboro, Mass.) with cone spindle CPA-40Z. The O2-Hb/PolyHb equilibrium binding curves were measured using a Hemox Analyzer (TCS Scientific Corp., New Hope, Pa.). The Hb/PolyHb kinetics of O2 offloading (koff,O2) and NO dioxygenation kinetics (kox,NO) were measured with an Applied Photophysics SF-17 microvolume stopped-flow spectrophotometer (Applied Photophysics Ltd., Surrey, United Kingdom) using protocols previously described by Rameez and Palmer. […]

[9] = O2 equilibrium binding curves of rHb and native Hb (Hemox analyzer); format: biochemical; conditions: 37° C.; for P50: O2 affinity; for N (cooperativity coefficient n): O2 equilibrium
Protocol: rHb Analysis. Various liganded forms of rHb were analyzed via UV-Vis spectroscopy and compared against native Hb. The oxy-rHb and oxyHb equilibrium binding curves were measured using a Hemox analyzer (TCS Scientific Corp., New Hope, Pa.) at 37° C. The spectra of rHb was measured after one day reaction with excess heme (stage 1), after reduction and diafiltration with the modified HEMOX buffer (stage 2), after placing the rHb mixture under a CO atmosphere (stage 3), after heating the CO-rHb mixture and removing precipitate (stage 4), and after re-oxygenating the rHb sample (stage 5). Spectral deconvolution software was developed in the Python programming language (Python Software Foundation Beaverton, Oreg.) using the non-linear least squares function curve_fit of the SciPy package to determine the fraction of various liganded forms of rHb that contribute to the final spectra of the rHb mixture (i.e. containing metHb, hemichrome, oxyHb, HbCO and heme).

[10] = Specificity of Al-PC binding to proteins (UV-visible absorbance at 680 nm); conditions: absorbance at 680 nm after Al-PC addition in PBS
Protocol: The stock Al-PC solution was diluted 100× into 100% EtOH.
The concentrations of Hp, HSA, Hb and rHb in solution were 1.0 mg/mL, 0.35 mg/ml (and 3.5 mg/ml), 0.35 mg/mL, and 0.33 mg/mL respectively.

[11] = Hb/PolyHb NO dioxygenation kinetics, stopped-flow; format: biochemical; conditions: 20° C., 0.1 M pH 7.4 PBS
Excerpt: as §4

[12] = O2-Hb/PolyHb equilibrium binding curves (Hemox Analyzer); format: biochemical
Excerpt: as §4

Molecule: [Cl][Al]1[n]2c3c4ccccc4c2N=C2N=C(N=c4c5ccccc5c([n]41)=NC1=NC(=N3)c3ccccc31)c1ccccc12 [Al-PC, aluminum phthalocyanine chloride]
- lethal dose for 50% cell-death (LD50) [1]: 10 µM
- lethal dose for 50% cell-death (LD50) [2]: 7 µM

Molecule: Hb in human RBCs: Hb in human red blood cells, literature O2 affinity
- O2 affinity P50, literature [3]: 29.3

Molecule: apoHb-Al-PC: Al-PC bound to apoHb
- stability in aqueous solution [4]: not stable in aqueous solution

Molecule: apoHb-Mn-IX: Mn-porphyrin IX bound to apoHb
- affinity of Hp [5]: higher affinity for apoHb-Mn-IX than to pure apoHb

Molecule: hHb: human hemoglobin prepared from red blood cells via tangential flow filtration [reference compound]
- rate constant of Hp binding, literature [6]: 129000 M⁻¹ s⁻¹
- rate constant of Hp binding [7]: 150000 ± 1000 M⁻¹ s⁻¹
- viscosity [8]: 1.2±0.2 cP
- P50 [9]: 11.69 ± 0.88 mm Hg
- P50 ([9]; listed as Native hHb): 11.33±0.02 mm Hg
- P50 ([9]; listed as native Hb): 11.69±0.88 mm Hg
- N (cooperativity coefficient n) [9]: 2.73 ± 0.11^
- N (cooperativity coefficient n) ([9]; listed as Native hHb): 2.60±0.01
- N (cooperativity coefficient n) ([9]; listed as native Hb): 2.73±0.11
- Al-PC binding [10]: no appreciable binding of Al-PC
- rate of NO dioxygenation kox,NO [11]: 36.0±6.1
- cooperativity n [12]: 2.51±0.06
- oxygen affinity P50 [12]: 12.4±1.3 mm Hg
